Source: US10407467B2, “Polymyxin derivatives and their use in combination therapy together with different antibiotics” (priority 2013, dated 2019)
Like-named read-outs stand apart in the source and are kept apart here. Marks after values point to notes of the source that are not given here. Bridge positions count the residues as written; N and C are the ends. Square brackets hold non-standard residues; d marks the D form. Peptide text beside a SMILES is read from it. * marks the point of attachment. ξ: configuration not given here. ξβ3hGly(cHex) = NC(CC(=O)*)C1CCCCC1; Thr(3ξ) = CC(O)[C@H](N)C(=O)O; Dab = NCC[C@H](N)C(=O)O

Experiments:
[1] = test system: Klebsiella pneumoniae ATCC10031; conditions: 10 mg/kg/day, neutropenic mice thigh infection
[2] = rats, 8 mg/kg BID regimen, seven days, compared to Colistin at the same dose regimen
Experimental: After one week acclimatisation, male Sprague-Dawley rats were surgically prepared with a jugular cannula and were housed individually, as required, either in pre-assigned housing cages or metabolic cages. Colistin and the Example Compounds were prepared in saline.
Compounds were introduced via the jugular cannula twice a day 7 hours apart for seven days. Each dose was increased progressively for three days up to the top dose that was then administered until termination of the study. Twenty-four hour urine collection (on ice) was performed at pre-dose and on days 4 and 7. The dose regimen is set out in Table 10 below.
The doses in the table are indicated in mg drug base/kg (free base).
The activity in urine of the N-acetyl-beta-D-glucosaminidase (NAG) was determined spectrophotometrically using the NAG assay kit from Roche Applied Science. Biomarkers of kidney injury were determined using the Kidney Injury Panel II from the Multi-Spot® Assay System (Meso Scale Discovery).

[3] = test system: P. aeruginosa ATCC 27853
[4] = test system: P. aeruginosa ATCC27853; format: in vivo, Pseudomonas aeruginosa; conditions: 1:1 with rifampicin at a total dose of 5 mg/kg, IV at 1, 3.5 and 6 hours
Experimental: Compounds were administered in solution by intravenous (IV) bolus injection into the lateral tail vein. […] At 1 hour post infection, 4 animals were humanely euthanized using pentabarbitone overdose to provide a pre-treatment control group. At 9 hours post infection, the clinical condition of all animals was assessed prior to them being humanely euthanized by pentabarbitone overdose. Animal weight was determined before both thighs were removed and weighed individually. Individual thigh tissue samples were homogenized in ice cold sterile phosphate buffered saline. Thigh homogenates were then quantitatively cultured onto CLED agar and incubated at 37° C. for 24 hours before colonies were counted.

[5] = test system: E. coli ATCC25922
Experimental: Mice were rendered temporarily neutropenic by immunosuppression with cyclophosphamide at 150 mg/kg 4 days before infection and 100 mg/kg 1 day before infection by intraperitoneal injection.
Compounds were administered in solution by intravenous (IV) injection into the lateral tail vein. […] The vehicle control group was treated with vehicle (0.9% saline for injection) also at 10 mL/kg IV thrice at 1, 3.5 and 6 hours post infection.
At 1 hour post infection, 4 animals were humanely euthanized using pentabarbitone overdose to provide a pre-treatment control group. At 9 hours post infection, the clinical condition of all animals was assessed prior to them being humanely euthanized by pentabarbitone overdose. Animal weight was determined before both thighs were removed and weighed individually. Individual thigh tissue samples were homogenized in ice cold sterile phosphate buffered saline. Thigh homogenates were then quantitatively cultured onto CLED agar and incubated at 37° C. for 24 hours before colonies were counted.

[6] = test system: HK-2 cell line; test: In vitro renal cell toxicity assay (resazurin reduction); format: cell-based, human; conditions: HK-2 cells, 24 h, resazurin reduction; mean values of up to 6 independent studies

Row | Molecule | reduction in bacterial counts [1] | levels of the renal biomarkers NAG, albumin and cystatin C in urine [2] | Log reduction from vehicle (CFU/g) ([3]; Table 14, 1 mg/kg (sulfate salt) IV at 1, 3.5 and 6 h, 9 h) | Log reduction from vehicle (CFU/g) ([3]; Table 14, 2 mg/kg (sulfate salt) IV at 1, 3.5 and 6 h, 9 h) | Log reduction from vehicle (CFU/g) ([3]; Table 14, 4 mg/kg (sulfate salt) IV at 1, 3.5 and 6 h, 9 h) | Log reduction from vehicle (CFU/g) ([3]; Table 15, 1 mg/kg (sulfate salt) IV, 9 h) | Log reduction from vehicle (CFU/g) ([3]; Table 15, 2 mg/kg (sulfate salt) IV, 9 h) | Log reduction from vehicle (CFU/g) ([3]; Table 15, 4 mg/kg (sulfate salt) IV, 9 h) | Log reduction from vehicle (CFU/g) ([3]; Table 16, 0.85 mg/kg free base equivalent, infection level ~1×10^4 CFU/mouse thigh) | Log reduction from vehicle (CFU/g) ([3]; Table 16, 3.4 mg/kg free base equivalent, infection level ~1×10^4 CFU/mouse thigh) | log reduction in bacterial counts compared to non-treated control [4] | log reduction in bacterial counts compared to the non-treated control ([5]; 1:1 combination with Rifampicin at 4 mg/Kg total dose) | Log reduction from vehicle (CFU/g) ([5]; Table 9, monotherapy 0.125 mg/kg IV at 1, 3.5 and 6 h post infection, 9 h) | Log reduction from vehicle (CFU/g) ([5]; Table 9, monotherapy 0.5 mg/kg IV at 1, 3.5 and 6 h post infection, 9 h) | Log reduction from vehicle (CFU/g) ([5]; Table 12, alone 4 mg/kg (sulfate salt) IV) | IC50 HK-2 cells [6]
1 | CC(C)C[C@@H]1NC(=O)[C@@H](Cc2ccccc2)NC(=O)[C@H](CCN)NC(=O)[C@@H](NC(=O)[C@H](CCN)NC(=O)[C@@H](NC(=O)CC(N)C2CCCCC2)C(C)O)CCNC(=O)[C@H](C(C)O)NC(=O)[C@H](CCN)NC(=O)[C@H](CCN)NC1=O (stereo partly drawn) [Example 10, [3(R,S)-3-Amino-3-cyclohexane-propanoyl]Polymyxin B nonapeptide] ({ξβ3hGly(cHex)}-[Thr(3ξ)][Dab][Dab][Dab][dF]L[Dab][Dab][Thr(3ξ)]; lactam 3-C) | approx. 2 log10 | significantly reduced levels | – | – | – | – | – | – | – | – | – | – | – | – | – | –
2 | Polymyxin B [reference compound] | – | – | 0.58 log CFU/g | 1.67 log CFU/g | 5.09 log CFU/g | −0.12 log CFU/g | 1.40 log CFU/g | 3.41 log CFU/g | 1.19 log CFU/g | 4.23 log CFU/g | 5.37 log | 4.8 log | −0.36 log CFU/g | 1.93 log CFU/g | 3.61 log CFU/g | 11^b μg/mL
